Source: PMC11678797, “A Repurposed Drug Selection Pipeline to Identify CNS-Penetrant Drug Candidates for Glioblastoma” (Pharmaceuticals, 2024)
Read-outs that look alike come from different tables or passages of the source.

Test: Pharmacokinetics of omacetaxine in orthotopic glioblastoma PDX and naïve NOD/SCID mice (LC-MS/MS of plasma, brain, liver)
Format: in vivo, mouse
Experimental: An amount of 10 μL medium samples was vortex-mixed with 30 μL of acetonitrile: formic acid (100:1 v/v) containing 100 nM RO-3306 Internal Standard). After centrifugation, the supernatant was 5-fold diluted in water. OMA concentrations were measured using an LC-MS/MS system that consisted of an UltiMate 3000 LC System (Dionex, Sunnyvale, CA, USA) and an API 4000 mass spectrometer (Sciex, Framingham, MA, USA). Samples were analyzed using a ZORBAX Extend-C18 column (Agilent, Santa Clara, CA, USA), preceded by a Security-guard C18 pre-column (Phenomenex, Utrecht, The Netherlands). Elution was performed using a mixture of mobile phase A (0.1% formic acid in water (v/v)) and mobile phase B (methanol) in a 5 min gradient from 20% to 95% B, followed by 95% B that was maintained for 3 min and then re-equilibrated at 20% B. Multiple reaction monitoring parameters were 546.6/298.1 (OMA) and 352.1/186.0 (RO-3306).
Non-obese diabetic severe combined immunodeficient (NOD/SCID) female mice 6–8 weeks of age were used for this study. All experiments were ethically approved by the local Animal Experiments Committee. Patient-derived glioblastoma cell lines were cultured under serum-free conditions prior to injection into the mice. Mice were stereotactically injected with GS607, GS832 (both 2.5 × 10^5 in 5 μL) or GBM8 (1 × 10^5 in 3 μL) in the right striatum 1.0 mm anteroposterior (AP), 2.0 mm medio lateral (ML) and −2.5 mm dorsal ventral (DV) of bregma suture under aseptic conditions. Mice were monitored daily for signs of persistent abnormal behavior and/or breathing, weight loss >20% and development of neurological symptoms such as convulsions, seizures and/or hemiparesis. Mice were euthanized and the mouse brains harvested for histological and LC/MS/MS analysis.
A single dose of 1.5 mg/kg of OMA was administered s.c. to glioblastoma-bearing NOD/SCID and naïve non-tumor-bearing mice. Mice received OMA prior to the timepoint drug delivery experiment, ensuring the presence of significant tumor masses. For GS607, this was at 78 days; for GS832 at 90 days; and for GBM8 at 46 days post-tumor implantation, based on previous survival experiments. Blood samples were collected at 15 min, 30 min, 60 min, 120 min and 240 min via the tail vein and/or submandibular vein and placed in EDTA tubes. Mice were euthanized at 60 min, 120 min or 240 min with cervical dislocation. Brains and livers were surgically collected and snap-frozen in liquid nitrogen (N2). To preserve the drug stability in plasma mouse blood, samples were centrifuged immediately upon collection. Plasma was separated by centrifugation at 3500 rpm at 4 °C for 15 min. Both plasma and tissue samples were stored at −80 °C until LC-MS/MS analysis.

- concentration at 120 min (female, NOD/SCID, mouse, brain, right hemisphere (tumor bearing), sc, 1.5 mg/kg, GS832-PDX, 120 min, single s.c. dose 1.5 mg/kg, n = 5, read-out: [Brain] ± SD, right hemisphere (tumor bearing)): 20.8 ± 16.9 ng/g
- concentration at 240 min (female, NOD/SCID, mouse, brain, right hemisphere (tumor bearing), sc, 1.5 mg/kg, GS832-PDX, 240 min, single s.c. dose 1.5 mg/kg, n = 5, read-out: [Brain] ± SD, right hemisphere (tumor bearing)): 11.6 ± 6.4 ng/g
- Kp at 60 min (female, NOD/SCID, mouse, brain, sc, 1.5 mg/kg, GBM8 PDX, 60 min, single s.c. dose 1.5 mg/kg, read-out: [Brain]/[Plasma] Ratio ± SD): 0.11
- Kp at 60 min (female, NOD/SCID, mouse, brain, sc, 1.5 mg/kg, GS607-PDX, 60 min, single s.c. dose 1.5 mg/kg, n = 2 blood samples, read-out: [Brain]/[Plasma] Ratio ± SD): 0.23
- Kp at 60 min (female, NOD/SCID, mouse, brain, sc, 1.5 mg/kg, GS832-PDX, 60 min, single s.c. dose 1.5 mg/kg, read-out: [Brain]/[Plasma] Ratio ± SD): 0.1
- Kp at 120 min (female, NOD/SCID, mouse, brain, sc, 1.5 mg/kg, GS832-PDX, 120 min, single s.c. dose 1.5 mg/kg, read-out: [Brain]/[Plasma] Ratio ± SD): 0.37 ± 0.24
- Kp at 240 min (female, NOD/SCID, mouse, brain, sc, 1.5 mg/kg, GS832-PDX, 240 min, single s.c. dose 1.5 mg/kg, read-out: [Brain]/[Plasma] Ratio ± SD): 0.5
- Kp at 60 min (female, NOD/SCID, mouse, brain, sc, 1.5 mg/kg, naïve non-tumor-bearing mice, 60 min, single s.c. dose 1.5 mg/kg, read-out: [Brain]/[Plasma] Ratio ± SD): 0.05 ± 0.01
- Kp at 60 min (female, NOD/SCID, mouse, brain, subcutaneous, 1.5 mg/kg, stated as at 60 min, range across PDX models, read-out: B/P ratio across the PDX models): 0.12 to 0.5
- concentration at 60 min (female, NOD/SCID, mouse, liver, sc, 1.5 mg/kg, GBM8 PDX, 60 min, single s.c. dose 1.5 mg/kg, n = 6, read-out: [Liver] ± SD): 998 ± 254 ng/g
- concentration at 60 min (female, NOD/SCID, mouse, liver, sc, 1.5 mg/kg, GS607-PDX, 60 min, single s.c. dose 1.5 mg/kg, n = 4, read-out: [Liver] ± SD): 1650 ± 163 ng/g
- concentration at 60 min (female, NOD/SCID, mouse, liver, sc, 1.5 mg/kg, GS832-PDX, 60 min, single s.c. dose 1.5 mg/kg, n = 5, read-out: [Liver] ± SD): 680 ± 156 ng/g
- concentration at 120 min (female, NOD/SCID, mouse, liver, sc, 1.5 mg/kg, GS832-PDX, 120 min, single s.c. dose 1.5 mg/kg, n = 5, read-out: [Liver] ± SD): 338 ± 94 ng/g
- concentration at 240 min (female, NOD/SCID, mouse, liver, sc, 1.5 mg/kg, GS832-PDX, 240 min, single s.c. dose 1.5 mg/kg, n = 5, read-out: [Liver] ± SD): 190 ± 48 ng/g
- concentration at 60 min (female, NOD/SCID, mouse, liver, sc, 1.5 mg/kg, naïve non-tumor-bearing mice, 60 min, single s.c. dose 1.5 mg/kg, n = 2, read-out: [Liver] ± SD): 715.9 ± 4.6 ng/g
- concentration at 60 min (female, NOD/SCID, mouse, plasma, sc, 1.5 mg/kg, GBM8 PDX, 60 min, single s.c. dose 1.5 mg/kg, n = 6, read-out: [Plasma] ± SD): 391 ± 58 ng/mL
- concentration at 60 min (female, NOD/SCID, mouse, plasma, sc, 1.5 mg/kg, GS607-PDX, 60 min, single s.c. dose 1.5 mg/kg, n = 2 blood samples, read-out: [Plasma] ± SD): 88 ± 9 ng/mL
- concentration at 15 min (female, NOD/SCID, mouse, plasma, sc, 1.5 mg/kg, GS832-PDX NOD/SCID mice, single s.c. dose 1.5 mg/kg, 15 min (Table 1), read-out: [Plasma] ± SD): 396 ± 59 ng/mL
- concentration at 30 min (female, NOD/SCID, mouse, plasma, sc, 1.5 mg/kg, GS832-PDX NOD/SCID mice, single s.c. dose 1.5 mg/kg, 30 min (Table 1), read-out: [Plasma] ± SD): 282 ± 65.4 ng/mL
- concentration at 60 min (female, NOD/SCID, mouse, plasma, sc, 1.5 mg/kg, GS832-PDX NOD/SCID mice, single s.c. dose 1.5 mg/kg, 60 min (Table 1, n = 9), read-out: [Plasma] ± SD): 166 ± 29 ng/mL
- concentration at 120 min (female, NOD/SCID, mouse, plasma, sc, 1.5 mg/kg, GS832-PDX NOD/SCID mice, single s.c. dose 1.5 mg/kg, 120 min (Table 1, n = 10), read-out: [Plasma] ± SD): 57.8 ± 10.8 ng/mL
- concentration at 240 min (female, NOD/SCID, mouse, plasma, sc, 1.5 mg/kg, GS832-PDX NOD/SCID mice, single s.c. dose 1.5 mg/kg, 240 min (Table 1), read-out: [Plasma] ± SD): 24 ± 3 ng/mL
- concentration at 60 min (female, NOD/SCID, mouse, plasma, sc, 1.5 mg/kg, GS832-PDX, 60 min, single s.c. dose 1.5 mg/kg, n = 5 (Table 2), read-out: [Plasma] ± SD): 186 ± 21.1 ng/mL
- concentration at 120 min (female, NOD/SCID, mouse, plasma, sc, 1.5 mg/kg, GS832-PDX, 120 min, single s.c. dose 1.5 mg/kg, n = 5 (Table 2), read-out: [Plasma] ± SD): 55.6 ± 10.7 ng/mL
- concentration at 240 min (female, NOD/SCID, mouse, plasma, sc, 1.5 mg/kg, GS832-PDX, 240 min, single s.c. dose 1.5 mg/kg, n = 5 (Table 2), read-out: [Plasma] ± SD): 23.5 ± 0.7 ng/mL
- concentration at 60 min (female, NOD/SCID, mouse, plasma, sc, 1.5 mg/kg, naïve non-tumor-bearing mice, 60 min, single s.c. dose 1.5 mg/kg, n = 2, read-out: [Plasma] ± SD): 224 ± 12 ng/mL
- Tmax (female, NOD/SCID, mouse, plasma, sc, GS832 tumor-bearing mice, single s.c. dose 1.5 mg/kg, read-out: time of peak concentration in plasma (converted)): 15 min
- half-life (female, NOD/SCID, mouse, sc, plasma, GS832 tumor-bearing mice, single s.c. dose 1.5 mg/kg): 50 min
- [Brain] ± SD, right hemisphere (non-tumor-bearing) (naïve non-tumor-bearing mice, 60 min, single s.c. dose 1.5 mg/kg, n = 2, 1.5 mg/kg): 16.4 ± 2.9 ng/g
SMILES: COC(=O)C[C@](O)(CCCC(C)(C)O)C(=O)O[C@@H]1C(OC)=C[C@]23CCCN2CCc2cc4c(cc2[C@H]13)OCO4 [OMA, Omacetaxine mepesuccinate]
